# Measured values: patent US9139502B2, “Use of an urushiol compound in preparation of pharmaceutical compositions for inhibiting Smad3 phosphorylation” (Southern Hospital, Southern Medical University, priority 2013, dated 2015)
# Tests used:
# ERK = assay: Western blot of ERK phosphorylation in UUO kidneys; format: in vivo, rat; details: UUO rats, GQ-5 40 mg/kg daily i.p. right after UUO, sacrificed day 14
# Experimental: (§1) Male Sprague-Dawley rats with body weight 200 to 250 g were randomized into 3 groups (n=6 in each group): (1) sham operated rats; (2) UUO rats; (3) UUO+GQ-5 rats.
# (§2) GQ-5 was dissolved in 5% propylene glycol.
# (§3) (3) UUO+GQ-5 rats: daily intraperitoneal injection of GQ-5 (40 mg/kg body weight) right after UUO;
# (§4) UUO was performed using an established protocol as described. GQ-5 was dissolved in 5% propylene glycol. Rats were administrated with GQ-5 as described before. All the rats were sacrificed 14 days after UUO. Western blot analyses were performed to examine the Smad4, Smad7 expression and p38, PI3K, ERK phosphorylation.
# Smad3 = assay: Immunofluorescence staining of TGF-β1-induced Smad3 nuclear translocation; format: cell-based, rat; details: NRK52E cells, GQ-5 2.5 μM pre-treated 1 h, TGF-β1 10 ng/ml 2 h
# Experimental: (§5) NRK52E cells were cultured in DMEM-Ham's medium supplemented with 10% fetal bovine serum. The cells reached at approximately 50% confluence were used for in vitro experiments. Cells were serum-starved for 12 h, and randomized into 3 groups: (1) Controls; (2) TGF-β1 only; (3) TGF-β1+GQ-5.
# (§6) (2) TGF-β1 only: pre-treated with DMSO for 1 h, followed with TGF-β1 (10 ng/ml) for 2 h
# (§7) (3) TGF-β1+GQ-5: pre-treated with GQ-5 (2.5 μM) for 1 h, followed with TGF-β1 (10 ng/ml) for 2 h
# (§8) GQ-5 was dissolved in DMSO. Cells were treated as described Immunofluorescence staining was performed to examine the nuclear translocation of Smad2, Smad3, and Smad4.
# Smad2 = assay: Immunofluorescence staining of Smad2 nuclear translocation; format: cell-based, rat; details: NRK52E cells, GQ-5 2.5 μM pre-treated 1 h, TGF-β1 10 ng/ml 2 h
# Experimental: as §5, §6, §7, §8
# α-SMA = assay: Real-time PCR of TGF-β1-induced α-SMA mRNA in vitro; format: cell-based, rat; details: NRK 52E and NRK 49F cells, GQ-5 0.1-2.5 μM pre-treated 1 h, TGF-β1 10 ng/ml 36 h
# Experimental: as §5, with “NRK52E and NRK49F” for “NRK52E”, “6” for “3”, “(2) GQ-5 only; (3)” for “(2)”, “(4) TGF-β1+GQ-5 0.1 μM; (5) TGF-β1+GQ-5 0.5 μM; (6) TGF-β1+GQ-5 2.5 μM” for “(3) TGF-β1+GQ-5.”
# (2) GQ-5 only: pre-treated with GQ-5 (2.5 μM) for 1 h, followed with DMEM for 36 h
# (3) TGF-β1 only: pre-treated with DMSO for 1 h, followed with TGF-β1 (10 ng/ml) for 36 h
# (4) TGF-β1+GQ-5 0.1 μM: pre-treated with GQ-5 (0.1 μM) for 1 h, followed with TGF-β1 (10 ng/ml) for 36 h
# (5) TGF-β1+GQ-5 0.5 μM: pre-treated with GQ-5 (0.5 μM) for 1 h, followed with TGF-β1 (10 ng/ml) for 36 h
# (6) TGF-β1+GQ-5 2.5 μM: pre-treated with GQ-5 (2.5 μM) for 1 h, followed with TGF-β1 (10 ng/ml) for 36 h
# GQ-5 was dissolved in DMSO. Cells were treated as described. Cells were collected for mRNA extraction. Real-rime PCR was performed to examine the mRNA expression of α-SMA, collagen I and fibronectin.
# [1] = target: interaction of Smad3 with TβRI (Rattus norvegicus, UniProt P84025); assay: Immunoprecipitation of Smad3 with TβRI in vitro; format: cell-based; details: NRK52E cells, GQ-5 2.5 nM pre-treated 1 h, TGF-β1 10 ng/ml 1 h
# Experimental: as §5, with “4” for “3”, “(2) GQ-5 only; (3)” for “(2)”, “(4) TGF-β1+GQ-5” for “(3) TGF-β1+GQ-5.”
# (2) GQ-5 only: pre-treated with GQ-5 (2.5 nM) for 1 h, followed with DMEM for 1 h
# (3) TGF-β1 only: pre-treated with DMSO for 1 h, followed with TGF-β1 (10 ng/ml) for 1 h
# (4) TGF-β1+GQ-5: pre-treated with GQ-5 (2.5 nM) for 1 h, followed with TGF-β1 (10 ng/ml) for 1 h
# GQ-5 was dissolved in DMSO. Cells were treated as described. Cell lysates were collected for immunoprecipitation to examine the interaction among TGFβ type I receptor (TβRI), TβRII, Smad3 and Smad2.
# [2] = target: interaction of Smad2 with TβRI (Rattus norvegicus, UniProt O70436); assay: Immunoprecipitation of Smad2 with TβRI in UUO kidneys; format: in vivo; details: GQ-5 40 mg/kg daily i.p. right after UUO, sacrificed day 14
# Experimental: as §1, §2, §3
# as §4, with “Immunoprecipitation” for “Western blot”, “interaction among TβRI, TβRII, Smad3” for “Smad4, Smad7 expression”, “Smad2.” for “p38, PI3K, ERK phosphorylation.”
# Sequence of interaction of Smad3 with TβRI (P84025 whole entry): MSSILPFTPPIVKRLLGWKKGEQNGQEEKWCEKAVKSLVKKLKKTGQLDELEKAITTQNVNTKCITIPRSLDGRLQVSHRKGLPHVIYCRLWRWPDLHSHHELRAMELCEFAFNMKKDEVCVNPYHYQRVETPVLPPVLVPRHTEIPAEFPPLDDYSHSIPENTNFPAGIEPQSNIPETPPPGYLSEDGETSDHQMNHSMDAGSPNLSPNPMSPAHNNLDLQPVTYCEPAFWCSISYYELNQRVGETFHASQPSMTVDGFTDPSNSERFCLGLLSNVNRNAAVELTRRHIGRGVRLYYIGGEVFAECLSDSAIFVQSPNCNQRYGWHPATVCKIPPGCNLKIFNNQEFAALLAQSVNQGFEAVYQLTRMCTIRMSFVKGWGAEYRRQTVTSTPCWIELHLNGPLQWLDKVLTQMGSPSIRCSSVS
# Sequence of interaction of Smad2 with TβRI (O70436 whole entry): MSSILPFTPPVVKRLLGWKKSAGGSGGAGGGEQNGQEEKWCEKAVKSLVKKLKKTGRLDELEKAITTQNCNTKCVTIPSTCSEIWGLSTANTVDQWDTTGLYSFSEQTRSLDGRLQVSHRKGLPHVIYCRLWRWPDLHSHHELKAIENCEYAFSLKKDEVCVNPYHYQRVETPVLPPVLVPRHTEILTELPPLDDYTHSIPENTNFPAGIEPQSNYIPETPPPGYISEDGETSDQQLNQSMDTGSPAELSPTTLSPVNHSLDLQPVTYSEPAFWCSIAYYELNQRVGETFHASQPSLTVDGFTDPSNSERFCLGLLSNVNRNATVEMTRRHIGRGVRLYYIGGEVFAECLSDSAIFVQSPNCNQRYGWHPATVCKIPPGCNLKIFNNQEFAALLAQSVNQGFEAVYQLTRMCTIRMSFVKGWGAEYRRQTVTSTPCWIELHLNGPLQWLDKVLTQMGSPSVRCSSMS
smiles,measurement,setting,value
"CCCCCC/C=C\CCCCCCCc1cccc(O)c1O [GQ-5, 3-[(Z)-pentadec-8-enyl]catechol]",phosphorylation of ERK,ERK,did not affect
same,TGF-β1-induced Smad3 nuclear translocation,Smad3,significantly reduced
same,nuclear translocation of Smad2,Smad2,also reduced
same,TGF-β1-induced mRNA expression of α-SMA,α-SMA,significantly inhibited
same,interaction of Smad3 with TβRI,[1],significantly blocked
same,interaction of Smad2 with TβRI,[2],did not affect
